The results in this text go back to BindingDB's records for doi:10.1021/jm040903t (Sapienza University of Rome, 2005).

The target of assay [1] is T1, Amine oxidase [flavin-containing] A (Bos taurus, UniProt P21398).
T1 sequence (P21398 whole entry): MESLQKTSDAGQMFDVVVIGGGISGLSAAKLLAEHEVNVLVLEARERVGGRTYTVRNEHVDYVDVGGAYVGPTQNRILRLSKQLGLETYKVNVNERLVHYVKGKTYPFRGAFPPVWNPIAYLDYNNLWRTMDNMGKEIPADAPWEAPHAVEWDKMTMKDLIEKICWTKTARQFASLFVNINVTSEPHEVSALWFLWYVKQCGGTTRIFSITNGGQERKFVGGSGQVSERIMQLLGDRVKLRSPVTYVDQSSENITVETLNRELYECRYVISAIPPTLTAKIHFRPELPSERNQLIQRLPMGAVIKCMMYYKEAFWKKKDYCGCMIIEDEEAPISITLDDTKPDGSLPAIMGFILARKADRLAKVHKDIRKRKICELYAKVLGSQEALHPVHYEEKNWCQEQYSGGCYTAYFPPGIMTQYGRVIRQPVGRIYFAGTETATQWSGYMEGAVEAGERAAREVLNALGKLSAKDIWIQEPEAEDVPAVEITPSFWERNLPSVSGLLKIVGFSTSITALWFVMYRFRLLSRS
The assay can be described thus: MAO Inhibition Assay. The note with it: pH 7.4; 38 °C. The procedure: (§1) MAO A and MAO B activities were determined […] using kynuramine as substrates. Fluorimetric measurements were recorded with a Perkin-Elmer LS 50B spectrofluorimeter. Dixon plots were used to estimate the inhibition constant (Ki) of the inhibitors. The data are the mean values of three or more experiments performed in duplicate.

Assay [2] concerns the target T2, Amine oxidase [flavin-containing] B (Bos taurus, UniProt P56560).
T2 sequence (P56560 whole entry): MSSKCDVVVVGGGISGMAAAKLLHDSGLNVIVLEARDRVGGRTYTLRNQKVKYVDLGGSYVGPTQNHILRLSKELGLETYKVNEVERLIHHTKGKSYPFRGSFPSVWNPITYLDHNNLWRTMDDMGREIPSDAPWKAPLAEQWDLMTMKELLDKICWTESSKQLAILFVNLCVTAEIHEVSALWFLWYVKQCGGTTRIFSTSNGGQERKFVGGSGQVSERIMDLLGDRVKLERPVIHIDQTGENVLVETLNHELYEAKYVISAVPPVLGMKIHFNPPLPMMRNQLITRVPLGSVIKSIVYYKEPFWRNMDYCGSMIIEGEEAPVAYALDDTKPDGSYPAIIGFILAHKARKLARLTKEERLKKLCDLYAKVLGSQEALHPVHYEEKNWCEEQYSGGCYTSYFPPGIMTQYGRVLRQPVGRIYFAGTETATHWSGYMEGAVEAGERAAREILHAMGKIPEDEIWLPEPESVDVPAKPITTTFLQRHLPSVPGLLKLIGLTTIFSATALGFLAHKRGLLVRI
The assay can be described thus: MAO Inhibition Assay. The settings on record: pH 7.4; 38 °C. On the procedure:
as §1

By Ki is commonly meant a measure of affinity in units of concentration, obtained from inhibition or displacement. A higher Ki goes with lower affinity. `NC(=S)N1N=C(c2ccc(F)cc2)C[C@H]1c1ccc(Cl)cc1` [(5S)-5-(4-chlorophenyl)-3-(4-fluorophenyl)-4,5-dihydro-1H-pyrazole-1-carbothioamide] displayed a Ki in assay [1] of 5 nM. `Cc1ccc(C2=NN(C(N)=S)C(c3ccc(Cl)cc3)C2)cc1` (configuration not stated) [5-(4-chlorophenyl)-3-(4-methylphenyl)-4,5-dihydro-1H-pyrazole-1-carbothioamide] gave a Ki in assay [2] of 1.5 nM.
